Reference: patent US20250059160A1, “Chemical Activators of Nicotinamide Mononucleotide adenylyltransferase 2 (NMNAT2) and Uses Thereof” (Tsinghua University, priority 2018, published 2025)
“Also recorded” adds a separate entry of the source.

Tests used:
CIPN mice model = test: paclitaxel-induced CIPN mouse model, Von Frey test; assay type: in vivo
Source text: The procedure of CIPN mouse model and treatment regimen is shown in the upper panel.
Chemotherapy-induced peripheral neuropathy (CIPN) arises from the peripheral nerve damage by anticancer pharmacotherapy, leading to a progressive, enduring, and debilitating condition featuring pain, numbness, tingling and sensitivity to cold in the hands and feet. CIPN afflicts between 30% and 40% of patients undergoing chemotherapy, but currently no effective treatment for CIPN exists (del Pino BM, 2010). Chemotherapy drugs associated with CIPN include the antimitotic drugs such as paclitaxel and vinblastine, which are widely used for the treatment of a variety of cancer. To evaluate the neuroprotective efficacy of the compounds in vivo, we developed an aggressive CIPN mice model as presented in FIG. 5.
Mice were daily administrated with compound 20, at doses of 6, 2, 0.6 and 0 mg/kg (5 animals per group, i.p.) from one week prior to the initiation of paclitaxel (D-7) to 8th day after the initiation of paclitaxel (D8). After one-week pre-dosing with compound 20, mice were injected intraperitoneally with paclitaxel at a dose of 2 mg/kg on 4 alternate days (Day 0, 2, 4, 6). The Von Frey test was conducted the other day after the last administration of paclitaxel. […] Mice were daily administrated with compound NSC, at doses of 1, 3, and 10 mg/kg (5-6 animals per group, i.p.) from one week prior to the initiation of taxol (paclitaxel) (D-7) to 8th day after the initiation of paclitaxel (D8). After one-week pre-dosing with compound NSC, mice were injected intraperitoneally with paclitaxel at a dose of 2 mg/kg on 4 alternate days (Day 0, 2, 4, 6). The Von Frey test was conducted the other day after the last administration of taxol (paclitaxel).

NMNAT1 = NMNAT1 (Homo sapiens, UniProt Q9HAN9); test: doubly coupled enzyme assay prepared for NMNAT1; assay type: biochemical; conditions: 3 μM compound, FIG. 3, NMNAT isoform comparison
Protocol: (§1) A doubly coupled enzyme assay was prepared for NMNAT1, NMNAT2 and NMNAT3. NMNAT activation is normalized, where the reaction rate of NMNAT in the presence of 3 μM of compound NSC was compared to that of a DMSO-treated control.
(§2) These compounds might represent direct activators of the NMNAT2 enzyme.

NMNAT2 = NMNAT2 (Homo sapiens, UniProt Q9BZQ4); test: doubly coupled NMNAT2 enzyme assay (NMNAT2 + ADH, NADH fluorescence); assay type: biochemical
Protocol: In a doubly coupled enzyme assay, the first enzyme NMNAT2 (it converted NMN to NAD) and the second enzyme ADH (it converted NAD to NADH) as well as compound NSC at a concentration of 3 μM were used, and the conversion of NMN to NADH was monitored by measuring fluorescence intensity of NADH at an excitation of 340 nm and an emission of 445 nm (Y axis) as a function of time (X axis).
A high-throughput screen was performed in search of compounds capable of activating NMNAT2, an important NAD biosynthetic enzyme. Roughly 50,000 synthetic organic chemicals were tested in a doubly coupled NMNAT assay that contains two enzymes, NMNAT2 and alcohol dehydrogenase (ADH). […] The conversion of NMN to NADH was monitored by measuring fluorescence intensity of NADH at an excitation of 340 nm and an emission of 445 nm (Y axis) as a function of time (X axis). Fluorescence at ex340 nm/em445 nm (F340/445) was measured continuously for 30 minutes at room temperature to establish the reaction velocity. […] The reaction rate is expressed as the concentration of NADH (equivalent to NAD) formed per minute. Since the concentration of NADH is reflected by F340/445, the reaction rate is thus the slope of the linear kinetic curve of F340/445 versus time at time t, written as F340 445/min, which is calculated in the equation: reaction rate=ΔF340/445/Δt. […]

SARM1-expressing cells = test: protection from SARM1-mediated toxicity, cell viability by CellTiter-Glo; assay type: cell-based; conditions: 0.1, 0.3, 1, 3, 10, and 30 μM, 24 hours, FIG. 4
Protocol: SARM1-expressing cells were treated with compound NSC at 0.1, 0.3, 1, 3, 10, and 30 μM. After 24 hours, the cell images in bright field were taken under the microscope before cell viability was determined by measuring ATP levels using CellTiter-Glo assay kit.
In the first assay, the compounds were added at 1, 3, 10, 30 and 100 μM in the reaction mixture. The reaction rate of NMNAT2 enzyme was calculated as the slope of the F340/445 versus time curve, and was normalized by DMSO-treated control. The dose response curves were plotted to assess the effects of individual compounds on NMNAT2 enzymatic activity. […] After 24 hours, the cell survival was measured by Cell-titer Glo kit, and normalized by DMSO-treated control. […]
Compounds NSC and 1-40 were evaluated in two independent assays: an in vitro enzyme assay measuring activation of NMNAT2 and a cell-based assay measuring the degree of protection from SARM1 expression in cells. […] The conversion of NMN to NADH was monitored by measuring fluorescence intensity of NADH at an excitation of 340 nm and an emission of 445 nm (Y axis) as a function of time (X axis). Fluorescence at ex340 nm/em445 nm (F340/445) was measured continuously for 30 minutes at room temperature to establish the reaction velocity. The reaction rate of NMNAT2 enzyme was expressed as the concentration of NADH (equivalent to NAD) formed per minute. […]

NMNAT3 = NMNAT3 (Homo sapiens, UniProt Q96T66); test: doubly coupled enzyme assay prepared for NMNAT3; assay type: biochemical; conditions: 3 μM compound, FIG. 3, NMNAT isoform comparison
Protocol: as §1, §2

[1] = tested on: alcohol dehydrogenase (ADH); test: ADH enzyme assay with NAD as substrate (counter-screen); assay type: biochemical; conditions: 5 μM compound, 50 μM NAD
Protocol: In a secondary screen, the compounds with the relative reaction rate higher than 150% are cherry-picked and retested in triplicates in the doubly coupled NMNAT2 assay. […] Briefly, the ADH enzyme reaction was prepared to contain 50 mM Tris-Cl (pH 8.0), 12 mM MgCl2, 1.5% ethanol, 10 mM semicarbizide, 0.2% bovine serum albumin (BSA), and 0.04 units ADH. 40 µl of the mixture was dispensed into 384-well black polypropylene plates, and individual compounds were added to each well at a final concentration of 5 μM. The reaction was initiated by addition of 50 μM NAD followed by gentle mixing in the plate. The conversion of NAD to NADH was monitored by measuring fluorescence intensity of NADH at an excitation of 340 nm and an emission of 445 nm (Y axis) as a function of time (X axis). Fluorescence at ex340 nm/em445 nm was measured continuously for 30 minutes to establish the kinetic reaction curve of F340/445 versus time. The reaction rates were calculated as described in the NMNAT2 assay. The relative ADH enzyme reaction rate in the presence of each compound is normalized by DMSO-treated control.

Sequence of NMNAT2 (Q9BZQ4 whole entry, species assumed): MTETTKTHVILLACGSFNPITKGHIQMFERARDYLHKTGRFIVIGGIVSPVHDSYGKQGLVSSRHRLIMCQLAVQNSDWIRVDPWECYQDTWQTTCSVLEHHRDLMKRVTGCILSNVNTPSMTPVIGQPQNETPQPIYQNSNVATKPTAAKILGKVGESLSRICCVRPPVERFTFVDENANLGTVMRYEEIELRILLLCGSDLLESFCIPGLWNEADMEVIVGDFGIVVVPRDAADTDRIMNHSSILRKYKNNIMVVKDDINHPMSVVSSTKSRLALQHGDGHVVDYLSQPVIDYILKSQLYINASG
Sequence of NMNAT1 (Q9HAN9 whole entry, species assumed, canonical isoform): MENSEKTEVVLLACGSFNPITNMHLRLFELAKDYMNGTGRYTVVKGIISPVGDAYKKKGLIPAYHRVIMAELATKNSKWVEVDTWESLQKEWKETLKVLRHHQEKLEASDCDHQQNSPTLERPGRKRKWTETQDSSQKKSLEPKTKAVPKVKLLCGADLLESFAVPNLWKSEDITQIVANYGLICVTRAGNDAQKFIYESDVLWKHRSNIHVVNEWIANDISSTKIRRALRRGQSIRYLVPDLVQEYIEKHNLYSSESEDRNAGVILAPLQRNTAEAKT
Sequence of NMNAT3 (Q96T66 whole entry, species assumed, canonical isoform): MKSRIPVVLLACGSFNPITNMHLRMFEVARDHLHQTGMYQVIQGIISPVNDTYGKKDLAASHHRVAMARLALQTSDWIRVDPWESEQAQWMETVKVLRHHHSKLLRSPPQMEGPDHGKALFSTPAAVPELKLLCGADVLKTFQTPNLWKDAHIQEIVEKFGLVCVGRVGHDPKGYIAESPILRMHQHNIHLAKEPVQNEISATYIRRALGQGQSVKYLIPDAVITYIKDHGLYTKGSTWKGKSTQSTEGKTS

Row | SMILES | mice paw pressure threshold (Von Frey test) (CIPN mice model; 6 mg/kg/day i.p., D-7 to D8, paclitaxel 2 mg/kg on days 0, 2, 4, 6, FIG. 5) | NMNAT1 activation (reaction rate compared to DMSO-treated control) (NMNAT1) | NMNAT2 activation (reaction rate compared to DMSO-treated control) (NMNAT2; 3 μM compound, FIG. 3, NMNAT isoform comparison) | level of activation in the doubly coupled NMNAT2 assay (NMNAT2; high-throughput screen hits, FIG. 2 with compound at 3 μM) | protection of cultured cells against SARM1-mediated toxicity (cell viability, ATP levels) (SARM1-expressing cells) | NMNAT3 activation (reaction rate compared to DMSO-treated control) (NMNAT3) | mice paw pressure threshold (Von Frey test) (CIPN mice model; 3 mg/kg/day i.p., D-7 to D8, paclitaxel 2 mg/kg on days 0, 2, 4, 6, FIG. 6) | mice paw pressure threshold (Von Frey test) (CIPN mice model; 10 mg/kg/day i.p., D-7 to D8, paclitaxel 2 mg/kg on days 0, 2, 4, 6, FIG. 6) | mice paw pressure threshold (Von Frey test) (CIPN mice model; FIG. 6 legend, dose not stated there) | activity in the ADH assay (relative ADH enzyme reaction rate) [1]
1 | C/C(=N\NC(=S)NN)c1ccccn1 [Compound 20, (E)-N′-(1-(pyridin-2-yl)ethylidene)hydrazinecarbothiohydrazide] | significantly increased the mice paw pressure threshold |  |  |  |  |  |  |  |  | 
2 | C/C(=N\NC(=S)N1CCC1)c1ccccn1 [Compound NSC, (E)-N′-(1-(pyridin-2-yl)ethylidene)azetidine-1-carbothiohydrazide] |  | NMNAT1 weakly; also recorded: activates NMNAT2 and NMNAT1 | activated NMNAT2 strongly; also recorded: activates NMNAT2 | most robust level of activation; also recorded: NMNAT2 activation | protects cultured cells against SARM1-mediated toxicity | not NMNAT3 | significantly increased the mice paw pressure threshold | significantly increased the mice paw pressure threshold | significantly increased the mice paw pressure threshold | inactive in the ADH assay
